The values below come from patent US20190060410A1, “Pharmaceutical Formulation Comprising GLP-1 Analogue and Preparation Method Thereof” (Hangzhou Jiuyuan Gene Engineering Co., Ltd., priority 2015, published 2019).

For series [1] the following is noted: patients, combined with metformin (Nauck et al.); cited from earlier work.
The conditions of series [2]: following subcutaneous injection; cited from earlier work.
The conditions of series [3]: cited from earlier work.
Series [4] in a line: dissolution of liraglutide powder at different pHs. It counts as physicochemical. On the procedure:
Investigating the dissolution of liraglutide powder at different pHs
The appropriate amount of liraglutide powder was dissolved in the water for injection and the disodium hydrogen phosphate buffer at a different pH was added resulting in the dissolution shown in Table 1.

In the case of `CCC1=C(C)CN(C(=O)NCCc2ccc(S(=O)(=O)NC(=O)N[C@H]3CC[C@H](C)CC3)cc2)C1=O` [glimepiride], the incidence of hypoglycemia in series [1] is reported as 17%.

Consider “Arg^34, Lys^26 (N^ε-(γ-Glu (N^α-hexadecanoyl))) GLP-1 (7-37) [liraglutide]”, for which the plasma half-life in series [2] is 13 h. For the same compound, the “reduction of systolic blood pressure” value in series [3] (LEAD series clinical trials, patients) is 2.7-6.7 mmHg. In series [3] (LEAD-2 and LEAD-3 clinical trials), the “patients who reported nausea” value is listed as below 10%. Moreover, the Dissolution entry in series [4] (6 mg/ml liraglutide in water for injection) is listed as “insoluble”; in series [4] (6 mg/ml liraglutide, 10 mM disodium hydrogen phosphate buffer (pH 7.00)), “insoluble”; in series [4] (6 mg/ml liraglutide, 10 mM disodium hydrogen phosphate buffer (pH 7.50)), “colorless”; in series [4] (6 mg/ml liraglutide, 10 mM disodium hydrogen phosphate buffer (pH 8.00)), “colorless”; in series [4] (6 mg/ml liraglutide, 10 mM disodium hydrogen phosphate buffer (pH 8.15)), “colorless”; in series [4] (6 mg/ml liraglutide, 10 mM disodium hydrogen phosphate buffer (pH 8.50)), “colorless”. For the same compound, the Dissolution entry in series [4] (6 mg/ml liraglutide, 10 mM disodium hydrogen phosphate buffer (pH 9.00)) was “colorless”. Further, the “dissolution of liraglutide powder” value in series [4] (acidic and neutral conditions) is listed as “didn't dissolve”; in series [4] (alkaline conditions), “readily dissolved”. The incidence of hypoglycemia entry in series [1] is “less than 3%”.
